Measured values published in US10722496B2, “2-iminobiotin for use in the treatment of brain cell injury” (Neurophyxia B.V., priority 2015, dated 2020).
Where “and” joins values, the source holds several entries; their conditions need not be identical. Equal entries are not always repeated.

Tests used:
[1] = system: IMR-32 cells; assay: Metabolic activity assay (MTS); assay type: cell-based, human
Description: In vitro hypoxia was induced in the cell cultures by using our recently described system with minor modifications (Huang et al., 2013b; Weber et al., 2015; Zitta et al., 2010). Enzyme stock solutions (100×) of catalase and glucose oxidase (both from Sigma-Aldrich) were prepared in cell culture medium (DMEM/F12, 1% FCS; final concentration: 120 U/ml and 2 U/ml respectively; Sigma-Aldrich) leading to a decrease of partial pressure of oxygen (pO2) below 10 mmHg within 5 minutes. Hypoxic conditions were confirmed by using a tissue oxygen pressure monitor (LICOX® CMP Oxygen Catheter; Integra, Plainsboro, USA). After 7 hours of hypoxia, the cells were washed twice with PBS (PAA) and fresh normoxic medium supplemented with solvent (citrate buffer 1%) or 2-IB (10, 30, 50, 100 and 300 ng/mL) was added to the cells. Investigations of cell damage, metabolic activity, ROS, hydrogen peroxide, nitrite/nitrate production, erkl/2, akt and stat5 phosphorylation as well as cell stress protein expression were performed with cell culture media or cell protein (FIG. 1).
Metabolically active cells were evaluated by using a colorimetric kit (CELLTITER96® AQueous One Solution Reagent G3580 Promega Madison, Wis., USA). Samples were prepared concerning to the manufacturer's protocol. Briefly, 4×10^4 cells were seeded per well in a 96-well plate with 100 μl DMEM/F12 supplemented with 10% FCS per well. After 2 days in culture, normoxia or hypoxia was applied for 7 hours followed by the addition of 2-IB or the respective solvent control (citrate 1%) for 17 hours. After that, 20 μl of […] reagent were added to each well for 2.5 hours at 37° C. Metabolic active cells generate a colored product, the absorbance of which was measured at 490 nm using an ELISA reader (Tecan, Crailsheim, Austria) in combination with the Magellan software v1.1.

[2] = Pharmacokinetics in adults after out of hospital cardiac arrest (Example 5B); assay type: in vivo, human; set-up: Obs. AUCinf (based on weight): unit not given here
Description: Namely, a first cohort of eight patients received 2-IB in a dose of 0.055 mg/kg/dose every 4 hours iv, 6 times in total (part A; i.e., 0.33 mg/kg/day).
The eight adults that suffered an out of hospital cardiac arrest were treated with 2-IB as a 15-minute IV infusion every 4 hours for 6 administrations. Target temperature management was used to maintain body temperature of 36.0 (median).
Models were generated in order to determine the impact of dose adjustments and variability of AUC.
An exploratory covariate analysis was performed looking at body weight, age, eGFR, SeCre, and Core temperature.

[3] = Table 4, basic model, Max of 8 patients
[4] = Table 4, basic model, Mean of 8 patients
[5] = Table 4, basic model, Median of 8 patients
[6] = Table 4, basic model, Min of 8 patients
[7] = Table 4, basic model, OHCA patients, 0.055 mg/kg/dose iv every 4 hours x6, individual patient (ID 1-8), 0.055 mg/kg
[8] = Table 5, covariate model with Crea0, Max of 8 patients
[9] = Table 5, covariate model with Crea0, Mean of 8 patients
[10] = Table 5, covariate model with Crea0, Median of 8 patients
[11] = Table 5, covariate model with Crea0, Min of 8 patients
[12] = Table 5, covariate model with Crea0, OHCA patients, 0.055 mg/kg/dose iv every 4 hours x6, individual patient (ID 1-8), 0.055 mg/kg
[13] = Table 9, eGFR0 (eGFR at baseline) model, OHCA patients, 0.055 mg/kg/dose iv every 4 hours x6, individual patient (ID 1-8), 0.055 mg/kg
[14] = Table 9, eGFR0 model, Max of 8 patients
[15] = Table 9, eGFR0 model, Mean of 8 patients
[16] = Table 9, eGFR0 model, Median of 8 patients
[17] = Table 9, eGFR0 model, Min of 8 patients
[18] = exploratory covariate analysis, 8 OHCA patients

N=C1N[C@H]2[C@H](CS[C@H]2CCCCC(=O)O)N1 [2-IB, 2-iminobiotin]
metabolic activity ([1]; 10 ng/ml 2-IB, hypoxia): 0.44±0.10 a.u. | metabolic activity ([1]; 10 ng/ml 2-IB, normoxia, 17 hours after hypoxia): 0.44±0.08 a.u. | metabolic activity ([1]; 30 ng/ml 2-IB, hypoxia): 0.45±0.09 a.u. | metabolic activity ([1]; 30 ng/ml 2-IB, normoxia): 0.49±0.08 a.u. | metabolic activity ([1]; 50 ng/ml 2-IB, hypoxia): 0.41±0.06 a.u. | metabolic activity ([1]; 50 ng/ml 2-IB, normoxia): 0.50±0.08 a.u. | metabolic activity ([1]; 100 ng/ml 2-IB, hypoxia): 0.33±0.06 a.u. | metabolic activity ([1]; 100 ng/ml 2-IB, normoxia): 0.58±0.09 a.u. | metabolic activity ([1]; 300 ng/ml 2-IB, hypoxia): 0.33±0.07 a.u. | metabolic activity ([1]; 300 ng/ml 2-IB, normoxia): 0.63±0.09 a.u. | hypoxia-induced reduction of metabolic activity, most efficient concentrations ([1]; 10-300 ng/ml tested, P<0.01 vs. control): most efficiently counteracted by 10, 30 and 50 ng/ml 2-IB | AUC cumul. [2, 3]: 5613 ng·h/mL | AUCinf [2, 3]: 1242 ng·h/mL | CL [2, 3]: 22.3 L/h | V [2, 3]: 33.6 L | VSS [2, 3]: 43.5 L | thalf [2, 3]: 6.3 h | AUC cumul. [2, 4]: 3238 ng·h/mL | AUCinf [2, 4]: 625 ng·h/mL | CL [2, 4]: 11.7 L/h | V [2, 4]: 14.9 L | VSS [2, 4]: 24.9 L | thalf [2, 4]: 2.5 h | AUC cumul. [2, 5]: 2777 ng·h/mL | AUCinf [2, 5]: 478 ng·h/mL | CL [2, 5]: 9.5 L/h | V [2, 5]: 12.7 L | VSS [2, 5]: 22.7 L | thalf [2, 5]: 1.6 h | AUC cumul. [2, 6]: 1236 ng·h/mL | AUCinf [2, 6]: 209 ng·h/mL | CL [2, 6]: 4.9 L/h | V [2, 6]: 5.0 L | VSS [2, 6]: 14.9 L | thalf [2, 6]: 1.0 h | AUC cumul. [2, 7]: 5613 ng·h/mL and 4680 ng·h/mL and 3521 ng·h/mL and 5386 ng·h/mL and 1858 ng·h/mL and 2032 ng·h/mL and 1236 ng·h/mL and 1577 ng·h/mL | AUCinf [2, 7]: 1152 ng·h/mL and 860 ng·h/mL and 612 ng·h/mL and 1242 ng·h/mL and 315 ng·h/mL and 343 ng·h/mL and 209 ng·h/mL and 265 ng·h/mL | CL [2, 7]: 6.4 L/h and 5.8 L/h and 7.6 L/h and 4.9 L/h and 11.4 L/h and 18.3 L/h and 22.3 L/h and 16.7 L/h | V [2, 7]: 24.3 L and 11.3 L and 7.3 L and 33.6 L and 5.0 L (2×) and 14.1 L and 19.0 L | VSS [2, 7]: 34.3 L and 21.3 L and 17.3 L and 43.5 L and 15.0 L and 24.1 L and 28.9 L and 14.9 L | thalf [2, 7]: 3.9 h and 2.8 h and 1.9 h and 6.3 h and 1.3 h and 1.2 h (2×) and 1.0 h | AUC cumul. [2, 8]: 5934 ng·h/mL | AUCinf [2, 8]: 1235 ng·h/mL | CL [2, 8]: 17.9 L/h | V [2, 8]: 34.1 L | VSS [2, 8]: 43.4 L | thalf [2, 8]: 5.4 h | AUC cumul. [2, 9]: 3226 ng·h/mL | AUCinf [2, 9]: 614 ng·h/mL | CL [2, 9]: 11.0 L/h | V [2, 9]: 15.4 L | VSS [2, 9]: 24.7 L | thalf [2, 9]: 2.3 h | AUC cumul. [2, 10]: 2405 ng·h/mL | AUCinf [2, 10]: 408 ng·h/mL | CL [2, 10]: 10.2 L/h | V [2, 10]: 13.2 L | VSS [2, 10]: 22.5 L | thalf [2, 10]: 1.5 h | AUC cumul. [2, 11]: 1615 ng·h/mL | AUCinf [2, 11]: 271 ng·h/mL | CL [2, 11]: 5.6 L/h | V [2, 11]: 4.7 L | VSS [2, 11]: 14.0 L | thalf [2, 11]: 1.0 h | AUC cumul. [2, 12]: 5934 ng·h/mL and 4803 ng·h/mL and 2726 ng·h/mL and 4886 ng·h/mL and 2063 ng·h/mL and 2085 ng·h/mL and 1694 ng·h/mL and 1615 ng·h/mL | AUCinf [2, 12]: 1235 ng·h/mL and 884 ng·h/mL and 464 ng·h/mL and 1063 ng·h/mL and 349 ng·h/mL and 352 ng·h/mL and 291 ng·h/mL and 271 ng·h/mL | CL [2, 12]: 6.0 L/h and 5.6 L/h and 10.0 L/h and 5.7 L/h and 10.3 L/h and 17.9 L/h and 16.0 L/h and 16.3 L/h | V [2, 12]: 24.5 L and 11.8 L and 7.2 L and 34.1 L and 4.7 L and 14.5 L and 21.3 L and 5.1 L | VSS [2, 12]: 33.8 L and 21.1 L and 16.5 L and 43.4 L and 14.0 L and 23.8 L and 30.6 L and 14.4 L | thalf [2, 12]: 4.1 h and 2.8 h and 1.4 h and 5.4 h and 1.3 h and 1.2 h and 1.5 h and 1.0 h | Obs. AUCinf (based on weight) ([2]; Table 8, covariate model with Crea0, individual patient (ID 1-8)): 291 and 271 and 1235 and 884 and 464 and 1063 and 349 and 352 | AUC [2, 13]: 5905 ng·h/mL and 4813 ng·h/mL and 2712 ng·h/mL and 4896 ng·h/mL and 2060 ng·h/mL and 2061 ng·h/mL and 1705 ng·h/mL and 1636 ng·h/mL | AUCinf [2, 13]: 1227 ng·h/mL and 886 ng·h/mL and 462 ng·h/mL and 1067 ng·h/mL and 349 ng·h/mL and 348 ng·h/mL and 292 ng·h/mL and 274 ng·h/mL | CL [2, 13]: 6.0 L/h and 5.6 L/h and 10.1 L/h and 5.7 L/h and 10.3 L/h and 18.1 L/h and 15.9 L/h and 16.1 L/h | V [2, 13]: 24.5 L and 11.8 L and 7.3 L and 34.2 L and 4.7 L and 14.8 L and 21.1 L and 5.0 L | VSS [2, 13]: 33.8 L and 21.1 L and 16.5 L and 43.5 L and 14.0 L and 24.1 L and 30.4 L and 14.3 L | thalf [2, 13]: 4.1 h and 2.8 h and 1.4 h and 5.4 h and 1.3 h and 1.2 h and 1.5 h and 1.0 h | AUC [2, 14]: 5905 ng·h/mL | AUCinf [2, 14]: 1227 ng·h/mL | CL [2, 14]: 18.1 L/h | V [2, 14]: 34.2 L | VSS [2, 14]: 43.5 L | thalf [2, 14]: 5.4 h | AUC [2, 15]: 3224 ng·h/mL | AUCinf [2, 15]: 613 ng·h/mL | CL [2, 15]: 11.0 L/h | V [2, 15]: 15.4 L | VSS [2, 15]: 24.7 L | thalf [2, 15]: 2.3 h | AUC [2, 16]: 2387 ng·h/mL | AUCinf [2, 16]: 405 ng·h/mL | CL [2, 16]: 10.2 L/h | V [2, 16]: 13.3 L | VSS [2, 16]: 22.6 L | thalf [2, 16]: 1.5 h | AUC [2, 17]: 1636 ng·h/mL | AUCinf [2, 17]: 274 ng·h/mL | CL [2, 17]: 5.6 L/h | V [2, 17]: 4.7 L | VSS [2, 17]: 14.0 L | thalf [2, 17]: 1.0 h | Obs. AUCinf (based on weight) ([2]; Table 10, covariate model with eGFR, individual patient (ID 1-8)): 292 and 274 and 1227 and 886 and 462 and 1067 and 349 and 348 | Obs. AUCinf (based on weight) ([2]; Table 10, Max of 8 patients): 1227 | Obs. AUCinf (based on weight) ([2]; Table 10, Mean of 8 patients): 613 | Obs. AUCinf (based on weight) ([2]; Table 10, Median of 8 patients): 405 | Obs. AUCinf (based on weight) ([2]; Table 10, Min of 8 patients): 274 | influence of body weight on clearance [2, 18]: not influenced by body weight | influence of body weight on volume [2, 18]: influenced by body weight | influence of renal function on clearance ([2]; renal function as Serum Creatinine or eGFR before treatment, exploratory covariate analysis): appears to be influenced be renal function
